The values that follow come from ChEMBL document CHEMBL5724558, “Image-based profiling of drug vulnerabilities in CRC organoids” (2024).

Values joined by “and” are separate entries in the source; they are usually repeats but may differ in a detail not shown here. Identical values can stand only once.

Assay type in all cases: functional, Homo sapiens
Holding throughout (set-up): dose or concentration left out as unconfirmed

In assay [1] the test system is Colon cancer organoid. Description: Image-based profiling of donated chemical probes and chemogenomic kinase set in O09 CRC organoid. Image analysis is performed on the sum area metric, and the data were normalized to the DMSO control. After imaging the organoid viability is measured using the OneGloEX Luciferase Assay System. The normalized viability data and sum area are reported.

Assay [2] has as its system Colon cancer organoid. The assay is described as follows: Image-based profiling of donated chemical probes and chemogenomic kinase set in O21 CRC organoid. Image analysis is performed on the sum area metric, and the data were normalized to the DMSO control. After imaging the organoid viability is measured using the OneGloEX Luciferase Assay System. The normalized viability data and sum area are reported.

Assay [3] deals with Colon cancer organoid. The assay is described as follows: Image-based profiling of donated chemical probes and chemogenomic kinase set in O06 CRC organoid. Image analysis is performed on the sum area metric, and the data were normalized to the DMSO control. After imaging the organoid viability is measured using the OneGloEX Luciferase Assay System. The normalized viability data and sum area are reported.

For the compound `Cn1nc(C(=O)NCc2ccc(C(=O)O)cc2)cc1-c1ccc2[nH]ccc2c1` [BI 4395], the “Cell Viability” value with Colon cancer organoid [1] (Replication number 1) is 118.116% and 98.6727%; with Colon cancer organoid [1] (Replication number 2) it was 113.973% and 124.717%; with Colon cancer organoid [2] (Replication number 1), 90.5249% and 84.9935%; in the assay with Colon cancer organoid [2] (Replication number 2), 78.9736% and 83.6735%; in the assay on Colon cancer organoid [3] (Replication number 1) it was 93.2096% and 84.0749%; with Colon cancer organoid [3] (Replication number 2), 51.0154% and 42.4045%.

In the case of `Cc1cnc(-c2cc(Cl)ccc2F)cc1-n1c(=O)n(CC(N)=O)c2cnccc21` [TP-008], the “Cell Viability” value in the assay on Colon cancer organoid [1] (Replication number 1) is 46.9462% and 85.5321%; in the assay with Colon cancer organoid [1] (Replication number 2) it was 76.2638% and 97.3434%; with Colon cancer organoid [2] (Replication number 1), 94.8191% and 94.398%; in the assay on Colon cancer organoid [2] (Replication number 2) it was 86.5351% and 93.3039%; in the assay with Colon cancer organoid [3] (Replication number 1), 69.5011% and 111.741%; in the assay with Colon cancer organoid [3] (Replication number 2) it was 79.5252% and 108.842%.

Take `COc1ncc(-c2ccc3nccc(-c4ccnnc4)c3c2)cc1NS(=O)(=O)c1ccc(F)cc1F` [OMIPALISIB]: the “Cell Viability” value in the assay on Colon cancer organoid [1] (Replication number 1) was 14.1746% and 4.189%; with Colon cancer organoid [1] (Replication number 2), 12.1613% and 4.9671%; in the assay with Colon cancer organoid [2] (Replication number 1) it was 14.5309% and 34.1185%; in the assay with Colon cancer organoid [3] (Replication number 1), 2.947% and 9.014%; in the assay on Colon cancer organoid [3] (Replication number 2), 1.718% and 5.799%.

With `C[C@]1(O)C[C@@H](c2nc(-c3ccc4ccc(-c5ccccc5)nc4c3)c3c(N)nccn32)C1` [LINSITINIB], the “Cell Viability” value in the assay with Colon cancer organoid [1] (Replication number 1) is 48.5771% and 41.3901%; with Colon cancer organoid [1] (Replication number 2) it was 29.8323% and 45.6217%; in the assay with Colon cancer organoid [2] (Replication number 1), 65.7988% and 93.6585%; in the assay with Colon cancer organoid [2] (Replication number 2) it was 45.8203% and 78.3015%; in the assay on Colon cancer organoid [3] (Replication number 1) it was 20.2503% and 50.5216%; with Colon cancer organoid [3] (Replication number 2), 16.9529% and 40.5141%.

For `CC(C)(C)OC(=O)N1CCCC1CNC1CCC(c2cc(F)ccc2F)(S(=O)(=O)c2ccc(Cl)cc2)CC1` (stereo not given) [GSI-NC], the “Cell Viability” value was 125.581% and 90.7884% in the assay with Colon cancer organoid [1] (Replication number 1); 108.329% and 85.8708% in the assay with Colon cancer organoid [1] (Replication number 2); 89.6265% and 62.8719% with Colon cancer organoid [2] (Replication number 1); 87.5663% and 80.102% with Colon cancer organoid [2] (Replication number 2); 66.8797% and 82.4356% in the assay with Colon cancer organoid [3] (Replication number 1); 76.3317% and 68.2262% with Colon cancer organoid [3] (Replication number 2).

`O=C(N1CCS(=O)(=O)CC1)N1C[C@H](c2ccc(OC(F)(F)F)cc2)C[C@H](c2nc(C3CC3)no2)C1` [BAY-386]: the “Cell Viability” value with Colon cancer organoid [1] (Replication number 1) was 89.9865% and 101.779%; in the assay with Colon cancer organoid [1] (Replication number 2), 61.3549% and 77.1084%; in the assay with Colon cancer organoid [2] (Replication number 1) it was 113.622% and 103.04%; in the assay on Colon cancer organoid [2] (Replication number 2), 77.465% and 87.7551%; in the assay on Colon cancer organoid [3] (Replication number 1) it was 89.0523% and 95.7845%; in the assay with Colon cancer organoid [3] (Replication number 2), 109.266% and 112.289%.

Regarding `CC(=O)Nc1cccc(-n2c(=O)n(C3CC3)c(=O)c3c(Nc4ccc(I)cc4F)n(C)c(=O)c(C)c32)c1` [TRAMETINIB], the “Cell Viability” value with Colon cancer organoid [1] (Replication number 1) was 7.185% and 14.6007%; with Colon cancer organoid [1] (Replication number 2), 7.6439% and 10.8886%; with Colon cancer organoid [2] (Replication number 1), 17.3032% and 24.3122%; in the assay with Colon cancer organoid [2] (Replication number 2), 17.3841% and 17.3982%; with Colon cancer organoid [3] (Replication number 1), 5.765% and 5.759%; in the assay on Colon cancer organoid [3] (Replication number 2), 5.411% and 4.125%.

As to `Cn1cc(Cl)c2c(Oc3c(F)cc(Nc4cc(Cl)nc(N)n4)cc3F)ccnc21` [BAY-4900], the “Cell Viability” value with Colon cancer organoid [1] (Replication number 1) was 73.6043% and 111.604%; with Colon cancer organoid [1] (Replication number 2), 79.5869% and 90.6027%; with Colon cancer organoid [2] (Replication number 1), 120.472% and 95.4893%; in the assay with Colon cancer organoid [2] (Replication number 2) it was 100.602% and 97.8926%; with Colon cancer organoid [3] (Replication number 1), 133.628% and 127.773%; with Colon cancer organoid [3] (Replication number 2), 114.004% and 114.608%.

On to `CN(C)C(=O)c1cc2cnc(Nc3ccc(N4CCNCC4)cn3)nc2n1C1CCCC1` [RIBOCICLIB], for which the “Cell Viability” value was 49.4558% and 44.8808% in the assay on Colon cancer organoid [1] (Replication number 1); 42.3849% and 44.8119% in the assay on Colon cancer organoid [1] (Replication number 2); 76.3687% and 83.6237% in the assay with Colon cancer organoid [2] (Replication number 1); 91.6892% in the assay with Colon cancer organoid [2] (Replication number 2); 18.4025% and 48.7411% in the assay with Colon cancer organoid [3] (Replication number 1); 14.7054% and 40.1028% in the assay on Colon cancer organoid [3] (Replication number 2).

`Cc1cc(CN)cc(C)c1-c1ncn(C)c1-c1cncn1C`: the “Cell Viability” value in the assay on Colon cancer organoid [1] (Replication number 1) was 189.71% and 98.9954%; in the assay on Colon cancer organoid [1] (Replication number 2), 198.722% and 106.905%; with Colon cancer organoid [2] (Replication number 1), 118.759% and 94.0562%; in the assay on Colon cancer organoid [2] (Replication number 2), 98.6287% and 80.0119%; in the assay on Colon cancer organoid [3] (Replication number 1) it was 108.725% and 89.8792%; with Colon cancer organoid [3] (Replication number 2) it was 171.9% and 107.541%.

As for `N#CN1CC[C@@H](C(=O)Nc2nc3c(s2)CN(C(=O)CN=[N+]=[N-])CC3)C1` [JYQ88], the “Cell Viability” value with Colon cancer organoid [1] (Replication number 1) was 58.2871% and 66.775%; with Colon cancer organoid [1] (Replication number 2), 121.196% and 102.102%; in the assay on Colon cancer organoid [2] (Replication number 1) it was 106.224% and 86.2132%; with Colon cancer organoid [2] (Replication number 2), 132.659% and 94.3236%; with Colon cancer organoid [3] (Replication number 1) it was 45.8886% and 74.332%; in the assay on Colon cancer organoid [3] (Replication number 2), 68.3691% and 90.3412%.
